Results from patent US20240246908A1 (ORION CORPORATION, priority 2021, published 2024).

Each compound was assayed on YAP-TEAD (assay: TEAD inhibition, Hippo Pathway TEAD Reporter MCF-7 luciferase assay). Details: Homo sapiens, MCF7, 24 h, Hippo Pathway TEAD Reporter MCF-7 cells, luciferase activity after 24 h; read-out: IC50 of the test compounds on YAP-TEAD inhibition (Group).
Type: cell-based
Summary of the method: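 MCF-7 cells carrying a TEAD-responsive firefly luciferase reporter, with nuclear YAP1 driving constitutive expression, were treated the day after plating with compounds (11 concentrations, 4 replicates; 0.1% DMSO control). After 24 h, luciferase was read by ONE-Glo luminescence and IC50 determined.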

First: COc1ccc(Oc2ccc(C(F)(F)F)cc2)cc1NC(=O)C1CCC(=O)N1CC1CC1 (stereo not drawn) [Compound 147, 1-(Cyclopropylmethyl)-N-(2-methoxy-5-(4-(trifluoromethyl)phenoxy)phenyl)-5-oxopyrrolidine-2-carboxamide]
Second: CN1C(=O)CCC1C(=O)Nc1cc(Oc2ccc(C(F)(F)F)cc2)cc2ccoc12 (stereo not drawn) [Compound 185, 1-Methyl-5-oxo-N-(5-(4-(trifluoromethyl)phenoxy)benzofuran-7-yl)pyrrolidine-2-carboxamide]
The IC50 of the first is higher: 50 to 300 nM for the first, < 50 nM for the second.

`COc1ccc(Oc2ccc(C(F)F)cc2)cc1NC(=O)C1CNC(=O)N1C` (stereo not drawn) [Compound 149, N-(5-(4-(Difluoromethyl)phenoxy)-2-methoxyphenyl)-3-methyl-2-oxoimidazoli-dine-4-carboxamide] and `CN1C(=O)NCC1C(=O)Nc1cc(Oc2ccc(C(F)(F)F)cc2)cc2c1OCO2` (stereo not drawn) [Compound 186, 3-Methyl-2-oxo-N-(6-(4-(trifluoromethyl)phenoxy)benzo[d][1,3]dioxol-4-yl)-imidazolidine-4-carboxamide] cannot be ordered by IC50: < 50 nM for the first, < 50 nM for the second.

`CN1C(=O)CC[C@H]1C(=O)Nc1cc(O[C@H]2CC[C@H](C(F)(F)F)CC2)cc2c1OCC2` [Compound 150, (S)-1-Methyl-5-oxo-N-(5-(((trans)-4-(trifluoromethyl)cyclohexyl)oxy)-2,3-dihydrobenzofuran-7-yl)pyrrolidine-2-carboxamide] and `CN1C(=O)CC[C@@H]1C(=O)Nc1cc(O[C@H]2CC[C@H](C(F)(F)F)CC2)cc2c1OCC2` [Compound 151, (R)-1-Methyl-5-oxo-N-(5-(((trans)-4-(trifluoromethyl)cyclohexyl)oxy)-2,3-dihydrobenzofuran-7-yl)pyrrolidine-2-carboxamide] cannot be ordered by IC50: < 50 nM for the first, < 50 nM for the second.

`COc1cc(F)c(Oc2ccc(C(F)(F)F)cn2)cc1NC(=O)C1COC(=O)N1C` (stereo not drawn) [Compound 152, N-(4-Fluoro-2-methoxy-5-((5-(trifluoromethyl)pyridin-2-yl)oxy)phenyl)-3-methyl-2-oxooxazolidine-4-carboxamide] and `COc1cc(F)c(Oc2ccc(C(F)(F)F)cn2)cc1NC(=O)[C@H]1COC(=O)N1C` [Compound 154, (R)—N-(4-Fluoro-2-methoxy-5-((5-(trifluoromethyl)pyridin-2-yl)-oxy)phenyl)-3-methyl-2-oxooxazolidine-4-carboxamide] cannot be ordered by IC50: < 50 nM for the first, < 50 nM for the second.

First: COc1cc(F)c(Oc2ccc(C(F)(F)F)cn2)cc1NC(=O)C1CNC(=O)N1C (stereo not drawn) [Compound 153, N-(4-Fluoro-2-methoxy-5-((5-(trifluoromethyl)pyridin-2-yl)oxy)phenyl)-3-methyl-2-oxoimidazolidine-4-carboxamide]
Second: COc1cc(F)c(Oc2ccc(C(F)(F)F)cn2)cc1NC(=O)[C@H]1CNC(=O)N1C [Compound 155, (R)—N-(4-Fluoro-2-methoxy-5-((5-(trifluoromethyl)pyridin-2-yl)oxy)phenyl)-3-methyl-2-oxoimidazolidine-4-carboxamide]
The IC50 of the first is lower: < 50 nM for the first, 50 to 300 nM for the second.

`CN1C(=O)NCC1C(=O)Nc1cc(Oc2ccc(C(F)(F)F)cn2)cc2c1OCC2` (stereo not drawn) [Compound 159, 3-Methyl-2-oxo-N-(5-((5-(trifluoromethyl)pyridin-2-yl)oxy)-2,3-dihydrobenzo-furan-7-yl)imidazolidine-4-carboxamide] and `CN1C(=O)NC[C@H]1C(=O)Nc1cc(Oc2ccc(C(F)(F)F)cn2)cc2c1OCC2` [Compound 168, (S)-3-Methyl-2-oxo-N-(5-((5-(trifluoromethyl)pyridin-2-yl)oxy)-2,3-dihydro-benzofuran-7-yl)imidazolidine-4-carboxamide] cannot be ordered by IC50: < 50 nM for the first, < 50 nM for the second.

`O=C1CC(C(=O)Nc2cc(Oc3ccc(C(F)(F)F)cn3)cc3c2OCC3)CCN1` (stereo not drawn) [Compound 160, 2-Oxo-N-(5-((5-(trifluoromethyl)pyridin-2-yl)oxy)-2,3-dihydrobenzofuran-7-yl)-piperidine-4-carboxamide] and `O=C1CCC(C(=O)Nc2cc(Oc3ccc(C(F)(F)F)cn3)cc3c2OCC3)CN1` (stereo not drawn) [Compound 161, 6-Oxo-N-(5-((5-(trifluoromethyl)pyridin-2-yl)oxy)-2,3-dihydrobenzofuran-7-yl)piperidine-3-carboxamide] fall in the same range of IC50: 50 to 300 nM for the first, 50 to 300 nM for the second.

`CN1C(=O)CC[C@@H]1C(=O)Nc1cc(Oc2ccc(C(F)(F)F)cn2)cc2c1OCC2` [Compound 162, (R)-1-Methyl-5-oxo-N-(5-((5-(trifluoromethyl)pyridin-2-yl)oxy)-2,3-dihydro-benzofuran-7-yl)pyrrolidine-2-carboxamide] and `CN1C(=O)CC[C@H]1C(=O)Nc1cc(Oc2ccc(C(F)(F)F)cn2)cc2c1OCC2` [Compound 163, (S)-1-Methyl-5-oxo-N-(5-((5-(trifluoromethyl)pyridin-2-yl)oxy)-2,3-dihydro-benzofuran-7-yl)pyrrolidine-2-carboxamide] cannot be ordered by IC50: < 50 nM for the first, < 50 nM for the second.

`O=C(Nc1cc(Oc2ccc(C(F)(F)F)cn2)cc2c1OCC2)C1CNC(=O)N1C1CC1` (stereo not drawn) [Compound 164, 3-Cyclopropyl-2-oxo-N-(5-((5-(trifluoromethyl)pyridin-2-yl)oxy)-2,3-dihydro-benzofuran-7-yl)imidazolidine-4-carboxamide] and `O=C(Nc1cc(Oc2ccc(C(F)(F)F)cn2)cc2c1OCC2)[C@@H]1CCC(=O)N1C1CC1` [Compound 165, (S)-1-Cyclopropyl-5-oxo-N-(5-((5-(trifluoromethyl)pyridin-2-yl)oxy)-2,3-dihydrobenzofuran-7-yl)pyrrolidine-2-carboxamide] cannot be ordered by IC50: < 50 nM for the first, < 50 nM for the second.

`O=C(Nc1cc(Oc2ccc(C(F)(F)F)cn2)cc2c1OCC2)[C@H]1CCC(=O)N1C1CC1` [Compound 166, (R)-1-Cyclopropyl-5-oxo-N-(5-((5-(trifluoromethyl)pyridin-2-yl)oxy)-2,3-dihydrobenzofuran-7-yl)pyrrolidine-2-carboxamide] and `O=C(Nc1cc(Oc2ccc(C(F)(F)F)cn2)cc2c1OCO2)C1CCC(=O)N1C1CC1` (stereo not drawn) [Compound 179, 1-Cyclopropyl-5-oxo-N-(6-((5-(trifluoromethyl)pyridin-2-yl)oxy)benzo[d]-[1,3]dioxol-4-yl)pyrrolidine-2-carboxamide] cannot be ordered by IC50: < 50 nM for the first, < 50 nM for the second.

First: CCN1C(=O)NCC1C(=O)Nc1cc(Oc2ccc(C(F)(F)F)cn2)cc2c1OCC2 (stereo not drawn) [Compound 167, 3-Ethyl-2-oxo-N-(5-((5-(trifluoromethyl)pyridin-2-yl)oxy)-2,3-dihydrobenzo-furan-7-yl)imidazolidine-4-carboxamide]
Second: CN1C(=O)NC[C@@H]1C(=O)Nc1cc(Oc2ccc(C(F)(F)F)cn2)cc2c1OCC2 [Compound 169, (R)-3-Methyl-2-oxo-N-(5-((5-(trifluoromethyl)pyridin-2-yl)oxy)-2,3-dihydro-benzofuran-7-yl)imidazolidine-4-carboxamide]
The IC50 of the first is lower: < 50 nM for the first, 50 to 300 nM for the second.

`CCN1C(=O)CC[C@@H]1C(=O)Nc1cc(Oc2ccc(C(F)(F)F)cn2)cc2c1OCC2` [Compound 170, (R)-1-Ethyl-5-oxo-N-(5-((5-(trifluoromethyl)pyridin-2-yl)oxy)-2,3-dihydro-benzofuran-7-yl)pyrrolidine-2-carboxamide] and `CCN1C(=O)CC[C@H]1C(=O)Nc1cc(Oc2ccc(C(F)(F)F)cn2)cc2c1OCC2` [Compound 171, (S)-1-Ethyl-5-oxo-N-(5-((5-(trifluoromethyl)pyridin-2-yl)oxy)-2,3-dihydro-benzofuran-7-yl)pyrrolidine-2-carboxamide] cannot be ordered by IC50: < 50 nM for the first, < 50 nM for the second.

`C[C@H]1Cc2cc(Oc3ccc(C(F)(F)F)cn3)cc(NC(=O)[C@H]3CCC(=O)N3C)c2O1` [Compound 172, (2R)-1-Methyl-N-(2-methyl-5-((5-(trifluoromethyl)pyridin-2-yl)oxy)-2,3-di-hydrobenzofuran-7-yl)-5-oxopyrrolidine-2-carboxamide] and `C[C@@H]1Cc2cc(Oc3ccc(C(F)(F)F)cn3)cc(NC(=O)[C@H]3CCC(=O)N3C)c2O1` [Compound 173, (2R)-1-Methyl-N-(2-methyl-5-((5-(trifluoromethyl)pyridin-2-yl)oxy)-2,3-di-hydrobenzofuran-7-yl)-5-oxopyrrolidine-2-carboxamide] fall in the same range of IC50: 50 to 300 nM for the first, 50 to 300 nM for the second.

First: CN1C(=O)CC[C@H]1C(=O)Nc1cc(Oc2ccc(C(F)(F)F)cn2)cc2c1OCCC2 [Compound 174, (S)-1-Methyl-5-oxo-N-(6-((5-(trifluoromethyl)pyridin-2-yl)oxy)chroman-8-yl)pyrrolidine-2-carboxamide]
Second: CN1C(=O)CC[C@@H]1C(=O)Nc1cc(Oc2ccc(C(F)(F)F)cn2)cc2c1OCCC2 [Compound 175, (R)-1-Methyl-5-oxo-N-(6-((5-(trifluoromethyl)pyridin-2-yl)oxy)chroman-8-yl)pyrrolidine-2-carboxamide]
The IC50 of the first is higher: 50 to 300 nM for the first, < 50 nM for the second.

`CN1C(=O)NCC1C(=O)Nc1cc(Oc2ccc(C(F)(F)F)cn2)cc2c1OCCC2` (stereo not drawn) [Compound 176, 3-Methyl-2-oxo-N-(6-((5-(trifluoromethyl)pyridin-2-yl)oxy)chroman-8-yl)-imidazolidine-4-carboxamide] and `CN1C(=O)CCC1C(=O)Nc1cc(Oc2ccc(C(F)(F)F)cn2)cc2c1OCCC2` (stereo not drawn) [Compound 177, 1-Methyl-5-oxo-N-(6-((5-(trifluoromethyl)pyridin-2-yl)oxy)chroman-8-yl)-pyrrolidine-2-carboxamide] cannot be ordered by IC50: < 50 nM for the first, < 50 nM for the second.

`CN1C(=O)NCC1C(=O)Nc1cc(Oc2ccc(C(F)(F)F)cn2)cc2c1OCO2` (stereo not drawn) [Compound 178, 3-Methyl-2-oxo-N-(6-((5-(trifluoromethyl)pyridin-2-yl)oxy)benzo[d]-[1,3]dioxol-4-yl)imidazolidine-4-carboxamide] and `CN1C(=O)NC[C@H]1C(=O)Nc1cc(Oc2ccc(C(F)(F)F)cn2)cc2c1OCO2` [Compound 180, (S)-3-Methyl-2-oxo-N-(6-((5-(trifluoromethyl)pyridin-2-yl)oxy)benzo-[d][1,3]dioxol-4-yl)imidazolidine-4-carboxamide] cannot be ordered by IC50: < 50 nM for the first, < 50 nM for the second.

With `CN1C(=O)NC[C@@H]1C(=O)Nc1cc(Oc2ccc(C(F)(F)F)cn2)cc2c1OCO2` [Compound 181, (R)-3-Methyl-2-oxo-N-(6-((5-(trifluoromethyl)pyridin-2-yl)oxy)benzo-[d][1,3]dioxol-4-yl)imidazolidine-4-carboxamide] the IC50 was 301 to 2000 nM.
